Reference: ChEMBL document CHEMBL1139229, “Design and synthesis of potent inhibitors of the malaria parasite dihydroorotate dehydrogenase” (J Med Chem, 2007)
Changes are numbered by the printed parent chain. Each block holds one molecule with its values, some of them ahead of it. The source made the active and inactive calls. The calls are words filed in the database; no cut-off is given here.

Columns and labels:
[1] = target: Dihydroorotate dehydrogenase (quinone), mitochondrial (Homo sapiens, UniProt Q02127); test: Inhibition of human recombinant DHODH
Sequence of Dihydroorotate dehydrogenase (quinone), mitochondrial (Q02127 whole entry): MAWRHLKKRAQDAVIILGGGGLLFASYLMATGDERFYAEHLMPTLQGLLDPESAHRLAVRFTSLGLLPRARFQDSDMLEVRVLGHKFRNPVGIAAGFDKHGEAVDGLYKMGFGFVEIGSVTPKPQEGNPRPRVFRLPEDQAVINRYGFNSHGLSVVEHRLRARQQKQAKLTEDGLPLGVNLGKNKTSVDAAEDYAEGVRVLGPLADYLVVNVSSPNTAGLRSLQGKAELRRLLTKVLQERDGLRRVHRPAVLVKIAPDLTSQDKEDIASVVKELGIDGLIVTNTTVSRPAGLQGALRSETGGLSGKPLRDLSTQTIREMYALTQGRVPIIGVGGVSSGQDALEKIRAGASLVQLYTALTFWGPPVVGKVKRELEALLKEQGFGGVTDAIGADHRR

[2] = target: T1, Dihydroorotate dehydrogenase (Plasmodium falciparum, UniProt Q54A96); test: (§1) Inhibition of recombinant Plasmodium falciparum DHODH
T1 sequence (Q54A96 whole entry): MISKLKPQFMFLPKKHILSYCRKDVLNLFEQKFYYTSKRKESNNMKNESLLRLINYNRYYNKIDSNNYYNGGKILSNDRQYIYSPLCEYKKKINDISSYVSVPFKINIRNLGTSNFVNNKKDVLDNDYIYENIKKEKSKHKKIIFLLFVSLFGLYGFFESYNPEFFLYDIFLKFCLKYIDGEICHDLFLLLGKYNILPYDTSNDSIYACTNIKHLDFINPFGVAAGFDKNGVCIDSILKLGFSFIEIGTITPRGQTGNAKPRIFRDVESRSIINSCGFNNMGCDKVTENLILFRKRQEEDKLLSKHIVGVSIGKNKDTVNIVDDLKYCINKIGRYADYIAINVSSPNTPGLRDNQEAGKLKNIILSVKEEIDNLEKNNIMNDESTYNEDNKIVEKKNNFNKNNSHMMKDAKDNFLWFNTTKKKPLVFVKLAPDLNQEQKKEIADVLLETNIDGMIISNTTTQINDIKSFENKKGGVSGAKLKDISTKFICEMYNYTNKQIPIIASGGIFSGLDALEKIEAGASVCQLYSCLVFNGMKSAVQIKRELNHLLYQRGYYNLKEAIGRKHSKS

[3] = Selectivity for Plasmodium falciparum recombinant DHODH over human recombinant DHODH
[4] = target: T2, Dihydroorotate dehydrogenase (Plasmodium falciparum) (UniProt Q54A96); test: Inhibition of recombinant Plasmodium falciparum DHODH at 10 uM
T2 sequence (whole entry): T1 sequence (Q54A96 whole entry)

[5] = system: Plasmodium falciparum; test: Antimalarial activity against Plasmodium falciparum NF54 3D7 after 48 hrs; assay type: functional, organism-based; details: NF54/3D7, 48 h
[6] = system: T3, Dihydroorotate dehydrogenase (quinone), mitochondrial (Plasmodium falciparum (isolate 3D7)), Q08210 [F188A]; test: Inhibition of Plasmodium falciparum DHODH F188A mutant
T3 sequence (whole entry): T1 sequence (Q54A96 whole entry) with F188A

[7] = compound: CCCCCCCCCCC1=C(C)C(=O)C(OC)=C(OC)C1=O; test: as §1
[8] = compound: O=C1CC(C(=O)O)NC(=O)N1; test: as §1

IC50 [1]: 104 µM
Ki [1]: 12.8 µM
IC50 [2]: 86.7 µM
Ki [2]: 10 µM
Selectivity ratio [3]: 1
Molecule: CCOC(=O)C(=CNc1cccc(-c2ccccc2)c1)C(=O)OCC

IC50 [1]: 292 µM
Ki [1]: 35.9 µM
inhibition [4]: > 10%
IC50 [2]: 346 µM
Ki [2]: 39.7 µM
Selectivity ratio [3]: 1
Molecule: CCOC(=O)C(=CNc1ccccc1C)C(=O)OCC

Molecule: CCOC(=O)/C(C#N)=C\Nc1cccc(-c2ccccc2)c1
IC50 [1]: 220 µM
Ki [1]: 0.027 µM
Selectivity ratio [3]: 10

IC50 [1]: 491 µM
Ki [1]: 60.4 µM
inhibition [4]: > 10%
IC50 [5]: 4 µM
IC50 [2]: 0.44 µM
Ki [2]: 0.05 µM
Selectivity ratio [3]: 1210
Molecule: CCOC(=O)/C(C#N)=C\Nc1ccc2c(c1)c1ccccc1n2CC

IC50 [1]: 29.6 µM
Ki [1]: 3.63 µM
inhibition [4]: > 10%
IC50 [5]: 1.8 µM
IC50 [2]: 0.16 µM
Ki [2]: 0.02 µM
Selectivity ratio [3]: 182
Molecule: CCOC(=O)C(=CNc1ccc2sc3ccccc3c2c1)C(=O)OCC

IC50 [1]: > 500 µM
IC50 [2]: > 500 µM
Molecule: CCOC(=O)C(=CNc1ccc(-c2ccccc2)cc1)C(=O)OCC

IC50 [1]: > 500 µM
inhibition [4]: > 10%
IC50 [2]: 349 µM
Ki [2]: 40.2 µM
Molecule: CCOC(=O)C(=CNc1ccc2[nH]cnc2c1)C(=O)OCC

IC50 [1]: > 500 µM
IC50 [2]: > 500 µM
Molecule: CCOC(=O)/C(C#N)=C\Nc1ccc(-c2ccccc2)cc1

Molecule: Cc1cc(Br)ccc1NC(=O)c1ccc2ccccc2c1
Ki [1]: 50.9 µM
Activity [6]: inactive
IC50 [2]: 0.18 µM
Ki [2]: 0.02 µM
Selectivity ratio [3]: 2310

IC50 [1]: 123 µM
Ki [1]: 15.1 µM
inhibition [4]: > 10%
IC50 [2]: 27.8 µM
Ki [2]: 3.2 µM
Selectivity ratio [3]: 5
Molecule: CCOC(=O)C(=CNc1ccc2[nH]ncc2c1)C(=O)OCC

Molecule: Cc1c(C(=O)Nc2cc(Cl)cc(Cl)c2)cccc1[N+](=O)[O-]
Ki [1]: 64.4 µM
Activity [6]: inactive
IC50 [2]: 0.23 µM
Ki [2]: 0.03 µM
Selectivity ratio [3]: 2280

Molecule: C/C(O)=C(\C#N)C(=O)Nc1ccc(C(F)(F)F)cc1
Activity [6]: inactive

IC50 [1]: 146 µM
Ki [1]: 17.9 µM
inhibition [4]: > 10%
IC50 [2]: 40 µM
Ki [2]: 4.6 µM
Selectivity ratio [3]: 4
Molecule: CCOC(=O)C(=CNc1ccc(C)cc1)C(=O)OCC

B1: Dihydroorotate dehydrogenase (Plasmodium falciparum), Q54A96 (protein)
chain: T1 sequence (Q54A96 whole entry)
Km [7]: 13.4 µM
Km [8]: 31.4 µM
